Reference: ChEMBL document CHEMBL3301555, “MMV Malaria Box screening in pLDH viability assay against Plasmodium falciparum gametocytes”

Experiments:
Plasmodium falciparum [1] = experiment: (§1) MMV: Measure of pLDH activity as indication of parasite viability. Gametocytogenesis of 3D7 Plasmodium falciparum strain was induced in vitro and asexual parasites were depleted with N-acetylglucosamine. Gametocytes were treated with dihydroartemisinin, epoxomicin, methylene blue, primaquine, puromycin or chloroquine in 96-well plates and the pLDH activity was evaluated using a modified Makler protocol. Mosquito infectivity was measured by the standard membrane feeding assay.; assay type: functional; design: concentration or dose not given beside the values
Plasmodium falciparum [2] = experiment: as §1, with “assay. The IC50 value was extrapolated as the concentration that induced a 50% inhibition of gametocyte viability.” for “assay.”; assay type: functional, organism-based

| SMILES | Growth Inhibition (Plasmodium falciparum [1]) [%] | IC50 (Plasmodium falciparum [2]) [µM] |
| --- | --- | --- |
| Cc1cc(C)c2nc(N3CCC(C(=O)NCCCN4CCC(N5CCCCC5)CC4)CC3)sc2c1 | 59.2216 | 1.93 |
| COC(=O)c1ccc(C2C3=C(O)CC(c4ccc(F)cc4)CC3=Nc3ccccc3N2C(=O)c2ccccc2)cc1 (stereo not drawn) | 56.5126 | 6.52 |
| COc1cccc(NC(=O)[C@H](C(C)C)n2c(=O)[nH]c3ccccc3c2=O)c1 | 63.4258 | 2.75 |
| Oc1c(C(Nc2ccccn2)c2cccc(Oc3ccccc3)c2)ccc2cccnc12 (stereo not drawn) | 50.44 | 3.89 |
| OC(CNC1CCCCC1)Cn1c2ccc(I)cc2c2cc(I)ccc21 (stereo not drawn) | 78.0014 | 0.758 |
| COc1ccc(C2NCCc3c2[nH]c2ccccc32)cc1CN1CCN(c2ccc(F)cc2)CC1.Cl (stereo not drawn) | 75.07 | 3.41 |
| Cc1sc2ncnc(Sc3nc4ccccc4[nH]3)c2c1C | 79.0368 | 2.64 |
| CC(C)CCNCC(O)Cn1c2ccccc2c2ccccc21.Cl (stereo not drawn) | 62.6796 | 2.83 |
| Cl.N=c1n(CCN2CCCCC2)c2ccccc2n1CC(O)c1cccc(Br)c1 (stereo not drawn) | 59.1366 | 3.93 |
| CN(C)c1ccc(N=Cc2ccc(N3CCOCC3)cc2)cc1 | 78.9978 | 4.16 |
| COc1ccc(-c2cc3c(nn2)-c2ccccc2C3=O)cc1 | 49.5345 | 5.01 |
| Cc1ccc(Nc2nc(-c3ccccn3)cs2)cc1 | 62.3104 | 1.38 |
| COc1ccc(C2c3ccc4ccccc4c3Oc3ncn(CCCN(C)C)c(=N)c32)cc1 (stereo not drawn) | 88.163 | 0.696 |
| Cc1ccc2cc3c(N)c4c(C)ccc(C)c4nc3nc2c1 | 80.372 | 2.72 |
| CCOc1ccc(CN2CCN(CC(O)COc3ccc(OCC(O)CN4CCN(Cc5ccc(OCC)cc5)CC4)cc3)CC2)cc1 (stereo not drawn) | 89.2205 | 1.34 |
| CC(C)(C)CC(C)(C)NCC(O)COc1ccc(Cl)cc1Cl (stereo not drawn) | 54.9615 | 5.62 |
| Oc1c(CN2CCN(c3ccccc3F)CC2)cc(Br)c2cccnc12 | 75.8386 | 1.9 |
| COc1ccc(C(=O)C(CCC(CNC(C)(C)C)C(=O)c2ccc(OC)cc2)CNC(C)(C)C)cc1 (stereo not drawn) | 56.45 | 3.22 |
| CC1CC2=C(CC1CNCCCN(C)C)C(C)(C)CCC2 (stereo not drawn) | 91.9455 | 0.576 |
| COc1cc(C(=O)ON=C(N)Cc2cccc3ccccc23)cc(OC)c1OC | 60.0732 | 4.04 |
| O=C(NCCCN1CCC(N2CCCCC2)CC1)C1=Cc2cc(Br)ccc2OC1 | 57.2548 | 1.44 |

| SMILES | Growth Inhibition (Plasmodium falciparum [1]) [%] | IC50 (Plasmodium falciparum [2]) [µM] |
| --- | --- | --- |
| CCCc1c(C)nc2ccc(Br)cc2c1O | 51.0245 | 8.9 |
| Cl.Clc1cc(Br)ccc1-c1ccc(CNCC2CCNCC2)o1 | 86.2708 | 0.407 |
| O=C(NC1CCN(Cc2ccccc2)CC1)c1cc(C(=O)NC2CCN(Cc3ccccc3)CC2)cc(C(=O)NC2CCN(Cc3ccccc3)CC2)c1 | 82.7495 | 0.288 |
| O=C(NC(c1ccccc1)c1ccc2cccnc2c1O)c1ccccc1 (stereo not drawn) | 59.5194 | 2.65 |
| CN(C)CCCNc1c2ccccc2nc2ccccc12 | 9.2618 | 3.14 |
| CN(C)CCCNCc1ccc(-c2ccc(F)c(Cl)c2)o1.Cl | 63.9166 | 2.21 |
| CN(C)c1ccc(C(O)(c2ccc(N(C)C)cc2)c2ccc(N(C)C)cc2)cc1 [METHYLROSANILINE] | 76.3425 | 0.158 |
| CC(C)OCc1cc(CN2CCN(c3cccc(Cl)c3)CC2)c(O)c2ncccc12 | 56.857 | 3.28 |
| Cl.c1ccc2c(NCCCCCCNc3c4c(nc5ccccc35)CCCC4)c3c(nc2c1)CCCC3 | 77.595 | 2.39 |
| Cc1cccc(-n2ncc3c(O)nc(-n4nc(C)cc4NC(=O)c4cc5ccccc5o4)nc32)c1 | 60.253 | 1.62 |
| CSc1ccccc1C(=O)Nc1nc(-c2ccccn2)cs1 | 29.8315 | 4.61 |
| CN1CCN(c2ccc(Nc3c4ccccc4nc4ccccc34)cc2)CC1 | 62.7432 | 0.732 |
| CC1=C(CC(=O)c2cccc([N+](=O)[O-])c2)C(=O)c2ccccc2C1=O | 70.075 | 0.902 |
| COc1ccc(C(=O)NC(c2ccc(Cl)cc2Cl)c2cc(Cl)c3cccnc3c2O)cc1 (stereo not drawn) | 50.4754 | 3.81 |
| COc1cccc(O)c1CN1CCC2(CCCN(Cc3ccc(F)cc3)C2)C1 (stereo not drawn) | 38.0312 | – |
| CC(=O)c1ccc(NC(=O)CSc2nc(-c3ccccc3Cl)ns2)cc1 | 4.3696 | – |
| CCCOCc1cc(CN2CCN(c3cccc(Cl)c3)CC2)c(O)c2ncccc12 | 80.5 | 3.8 |
| CC(C)(C)CC(C)(C)NCC(O)COc1ccc2c(c1)CCC2.Cl (stereo not drawn) | 14.2274 | – |
| Cc1cc(NC(=O)c2ccc(-c3ccccc3)cc2)no1 | 4.97 | – |
| Cc1ccc(-c2cc3c(SCC(=O)Nc4cc(C(F)(F)F)ccc4Cl)nccn3n2)cc1 | -10.2658 | – |
| O=C(Nc1ccsc1C(=O)NC1CCCCC1)c1ccc(F)cc1 | 7.047 | – |

| SMILES | Growth Inhibition (Plasmodium falciparum [1]) [%] | IC50 (Plasmodium falciparum [2]) [µM] |
| --- | --- | --- |
| CCOc1ccc(N2C(N)=NC(N)=NC2(C)C)cc1.Cl | -4.3826 | – |
| CCOC(=O)C1=CN(C)C=C(C(=O)OCC)C1c1cc(Br)c(OCC)c(OC)c1 | 20.4206 | – |
| COc1ccc(-c2nonc2NC(=O)c2cccc(C)c2)cc1OC | 3.7758 | – |
| COc1ccc(C(=O)C2CC2c2ccc(Cl)cc2)cc1 (stereo not drawn) | 8.002 | – |
| CCOc1ccc(CCNC(=O)c2cccs2)cc1OCC | 6.4232 | – |
| CCOc1ccc2nc(C)cc(Nc3ccc(Br)cc3)c2c1 | -8.7645 | – |
| CCOC(=O)c1ccc2nc(-c3ccccc3)cc(O)c2c1 | 40.6125 | – |
| FC(F)(F)c1cccc(Nc2nc(-c3ccccc3)nc3ncccc23)c1 | 9.5538 | – |
| CCN(CC)CCn1c(=N)n(CC(O)c2ccc(Cl)c(Cl)c2)c2ccccc21.Cl (stereo not drawn) | 75.2902 | 2.08 |
| COc1ccc(-n2ccnc2SCC(=O)Nc2cc(C)ccc2C)c(OC)c1 | 2.884 | – |
| COc1cc(-c2nc(-c3ccc(Sc4ccccc4)cc3)c(-c3ccccc3)[nH]2)cc(OC)c1O | 10.5558 | – |
| CC(C)CNC(=O)c1c(N)n(CCc2ccccc2F)c2nc3ccccc3nc12 | -1.2922 | – |
| COc1cc(C(=O)Nc2nc3c(cc4c5c(cccc53)CC4)s2)cc(OC)c1OC | 2.6754 | – |
| Cc1ccc(NC(=O)Nc2cccc(Cl)c2)cc1F | 3.3088 | – |
| COc1ccc(-c2nonc2NC(=O)c2cccc(Cl)c2)cc1OC | 6.9258 | – |
| COc1cccc(C(=O)NC(c2ccc(C)cc2)c2cc(Cl)c3cccnc3c2O)c1 (stereo not drawn) | 50.8652 | 3.09 |
| O=C(O)C(=O)O.Oc1ccc(Br)cc1CN1CCN(Cc2cccc(F)c2)CC1 | 29.456 | – |
| Cc1ccc(CN2CCC(C(=O)Nc3ccc(-c4cc5ccccc5[nH]4)cc3)CC2)o1 | 25.7326 | – |
| COc1ccc2sc(N(Cc3cccnc3)C(=O)c3ccc(C#N)cc3)nc2c1 | -6.4226 | – |
| OCCNc1nc(Nc2ccc(Cl)c(Cl)c2)nc2ccccc12 | 18.8816 | – |
| COc1ccccc1CNC(=O)CCn1c(=O)[nH]c2ccccc2c1=O | -1.4414 | – |

| SMILES | Growth Inhibition (Plasmodium falciparum [1]) [%] | IC50 (Plasmodium falciparum [2]) [µM] |
| --- | --- | --- |
| CCCCCCn1c(=N)n(CC(O)COc2cccc(C)c2)c2ccccc21.Cl (stereo not drawn) | 34.1668 | – |
| COc1ccc(N2CCN(C(CNC(=O)CC(C)(C)C)c3ccc4c(c3)OCO4)CC2)cc1 (stereo not drawn) | 14.9208 | – |
| COc1ccc(C(=O)Nc2nonc2-c2ccc(OC)c(OC)c2)cc1Cl | 7.9826 | – |
| CC1CN(C(=O)c2sc3ccccc3c2Cl)CC(C)O1 (stereo not drawn) | 1.741 | – |
| O=c1nc(C=Cc2ccc(Cl)cc2)oc2ccccc12 | 11.0552 | – |
| c1ccc(-c2ccc(-c3nc4ccccc4[nH]3)cc2)cc1 | 7.2118 | – |
| CCOC(=O)c1c(C)n(-c2ccccc2)c2ccc(OC(=O)c3cc(OC)c(OC)c(OC)c3)cc12 | -1.486 | – |
| CCN(CC)CCCNc1ccnc2cc3ccccc3cc12 | 22.6902 | – |
| CCCN(CCC)CCCNC(=O)c1cc2c(-c3ccc(OC)c(OC)c3)nn(C)c2s1 | 9.751 | – |
| COc1ccc(CN2CCN(Cc3ccccc3)CC2)c(O)c1 | 26.2585 | – |
| CCCCc1c(C)nc2c(OC)cccc2c1O | 10.7044 | – |
| O=C(Nc1ccc(Br)cc1)Nc1cccc(Cl)c1 | 8.8754 | – |
| CCCCNCC(O)(c1ccc(Cl)cc1)c1ccc(Cl)cc1 | 33.502 | – |
| COc1ccc(CCn2c(=N)c(C(=O)NCc3cccnc3)cc3c(=O)n4cccc(C)c4nc32)cc1 | 4.0678 | – |
| OC(CNCC1CCCO1)Cn1c2ccc(Cl)cc2c2cc(Cl)ccc21 (stereo not drawn) | 10.6906 | – |
| CCOc1ccc(Nc2c3ccccc3nc3ccccc23)cc1.Cl | 2.291 | – |
| COc1ccccc1NC1=C(N2CCCCC2)C(=O)c2ccccc2C1=O | 50.0502 | 0.236 |
| O=C(Nc1ccc(C23CC4CC(CC(c5ccccc5)(C4)C2)C3)cc1)c1cccs1 | 4.2535 | – |
| Cc1ccc(N2C(=O)C3C(C2=O)C2(c4ccccc4)C(=O)C3(c3ccccc3)C(c3ccccc3)=C2c2ccccc2)cc1 (stereo not drawn) | 4.6846 | – |
| Cc1cc(C)c2c(c1)OCN(Cc1ccccc1Cl)C2 | 32.69 | – |
| CCOc1cc2c(cc1OCC)C(c1cc(OC)c(O)cc1Cl)NCC2 (stereo not drawn) | 24.0654 | – |
